Experimental findings from patent US11566007B2, “Ras inhibitors” (Revolution Medicines, Inc., priority 2019, dated 2023) are described below.

Read-outs that look alike come from different tables or passages of the source.

The conditions of data set [1]: 18-membered ring.
In a further data set the test system is NCI-H358 (K-Ras G12C). Kind of data set: CellTiter-Glo cell viability assay, NCI-H358. Type of data set: cell-based, human. The following applies: Homo sapiens, NCI-H358, 120 h, NCI-H358, 5-day treatment; class symbols; read-out: Additional H358 Cell Viability assay data (K-Ras G12C, IC50). The essentials: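 Viability measured by CellTiter-Glo luminescence on day 5 following direct addition of compound to plated cells. Values expressed as percent of mean DMSO signal; curves fitted with a four-parameter logistic model.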

In the next data set the target is K-Ras G12C (Homo sapiens (Human), UniProt P01116+P62937, G12C). Kind of data set: Ras-Raf (BRAF RBD) disruption / FRET / MOA assay, KRAS G12C. The data set is classed as biochemical. Particulars: KRAS G12C; Ras-Raf disruption/FRET/MOA assay; read-out: IC50* KRAS G12C FRET data. The essentials:
(§1)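 Compound-driven ternary complex of nucleotide-loaded Ras with cyclophilin A, disrupting BRAF RBD binding. 10-point 3-fold dilution from 30 μM final, 3 h at 25° C, then anti-His Eu-W1024 (10 nM) and anti-GST allophycocyanin (50 nM) for 1.5 h. IC50 from TR-FRET ratio decrease versus DMSO.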

For the next data set, the target named is K-Ras G13C (Homo sapiens (Human), UniProt P01116+P62937, G13C). The data set can be described thus: Ras-Raf (BRAF RBD) disruption / FRET / MOA assay, KRAS G13C. The data set is classed as biochemical. The following applies: KRAS G13C; Ras-Raf disruption/FRET/MOA assay; read-out: IC50* KRAS G13C FRET data. An outline of the steps: as §1
K-Ras G13C, sequence (P01116-2 other isoform, or with tags, fused parts or gaps G13C): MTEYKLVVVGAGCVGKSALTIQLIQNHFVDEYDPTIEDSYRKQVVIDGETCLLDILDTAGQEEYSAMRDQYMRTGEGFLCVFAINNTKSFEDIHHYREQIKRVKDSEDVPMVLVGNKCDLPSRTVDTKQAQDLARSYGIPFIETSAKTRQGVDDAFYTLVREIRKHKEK
K-Ras G13C, sequence (P62937 whole entry): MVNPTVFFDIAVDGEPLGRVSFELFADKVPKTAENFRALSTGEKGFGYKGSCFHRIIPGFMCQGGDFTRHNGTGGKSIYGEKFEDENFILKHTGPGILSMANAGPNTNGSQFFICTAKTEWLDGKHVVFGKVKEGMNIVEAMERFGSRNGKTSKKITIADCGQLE
Another data set deals with KRAS G12S (Homo sapiens (Human), UniProt P01116+P62937, G12S). The data set can be described thus: Ras-Raf (BRAF RBD) disruption / FRET / MOA assay, KRAS G12S. Particulars: Ras-Raf disruption/FRET/MOA assay; class symbols; read-out: KRAS G12S FRET data IC50. Type of data set: biochemical. The essentials: as §1
KRAS G12S, sequence (P01116-2 other isoform, or with tags, fused parts or gaps G12S): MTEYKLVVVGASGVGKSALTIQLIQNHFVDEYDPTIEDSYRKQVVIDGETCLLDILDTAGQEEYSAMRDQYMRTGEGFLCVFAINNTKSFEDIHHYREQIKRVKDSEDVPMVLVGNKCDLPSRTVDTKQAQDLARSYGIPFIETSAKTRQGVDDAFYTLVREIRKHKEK
KRAS G12S, sequence (P62937 whole entry): as the sequence (P62937 whole entry) above
Another data set concerns the target KRAS G12D (Homo sapiens (Human), UniProt P01116+P62937, G12D). The data set can be described thus: Ras-Raf (BRAF RBD) disruption / FRET / MOA assay, KRAS G12D. Type of data set: biochemical. The following applies: Ras-Raf disruption/FRET/MOA assay; class symbols; read-out: KRAS G12D FRET data IC50. The essentials: as §1
A further data set deals with KRAS G12V (Homo sapiens (Human), UniProt P01116+P62937, G12V). Kind of data set: Ras-Raf (BRAF RBD) disruption / FRET / MOA assay, KRAS G12V. The data set is classed as biochemical. Particulars: read-out: IC50* KRAS G12V FRET data. An outline of the steps:
as §1

The target in the next data set is KRAS WT (Homo sapiens (Human), UniProt P01116+P62937). The data set can be described thus: Ras-Raf (BRAF RBD) disruption / FRET / MOA assay, KRAS WT. Particulars: read-out: IC50* KRAS WT FRET data. The data set is classed as biochemical. An outline of the steps:
as §1

The target of the next data set is KRAS G13D (Homo sapiens (Human), UniProt P01116+P62937, G13D). The data set can be described thus: Ras-Raf (BRAF RBD) disruption / FRET / MOA assay, KRAS G13D. Type of data set: biochemical. The following applies: read-out: IC50* KRAS G13D FRET data. The essentials: as §1
KRAS G13D, sequence (P01116-2 other isoform, or with tags, fused parts or gaps G13D): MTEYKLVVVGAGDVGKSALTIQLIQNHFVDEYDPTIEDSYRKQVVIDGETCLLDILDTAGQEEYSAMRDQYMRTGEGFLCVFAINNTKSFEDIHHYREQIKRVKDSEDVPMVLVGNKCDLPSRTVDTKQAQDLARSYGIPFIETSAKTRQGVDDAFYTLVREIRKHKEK
KRAS G13D, sequence (P62937 whole entry): as the sequence (P62937 whole entry) above
In a further data set the target is KRAS Q61H (Homo sapiens (Human), UniProt P01116+P62937, Q61H). The data set can be described thus: Ras-Raf (BRAF RBD) disruption / FRET / MOA assay, KRAS Q61H. The data set is classed as biochemical. The following applies: Ras-Raf disruption/FRET/MOA assay; class symbols; read-out: KRAS Q61H FRET data IC50. An outline of the steps:
(§2)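 Compounds (30 μM top final, 10-point 3-fold dilutions) incubated 3 h at 25° C with nucleotide-loaded Ras, cyclophilin A and BRAF RBD. Detection with 10 nM anti-His Eu-W1024 and 50 nM anti-GST allophycocyanin over another 1.5 h. Lowered TR-FRET ratio relative to DMSO wells gives IC50.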

In a further data set the target is NRAS G12C (Homo sapiens (Human), UniProt P01111+P62937, G12C). The data set can be described thus: Ras-Raf (BRAF RBD) disruption / FRET / MOA assay, NRAS G12C. The data set is classed as biochemical. The following applies: read-out: IC50* NRAS G12C FRET data. The essentials:
as §1

The target in the next data set is NRAS Q61R (Homo sapiens (Human), UniProt P01111+P62937, Q61R). The data set can be described thus: Ras-Raf (BRAF RBD) disruption / FRET / MOA assay, NRAS Q61R. The data set is classed as biochemical. Particulars: NRAS Q61R; Ras-Raf disruption/FRET/MOA assay; read-out: IC50* NRAS Q61R FRET data. The essentials: as §2
NRAS Q61R, sequence (P01111 whole entry Q61R): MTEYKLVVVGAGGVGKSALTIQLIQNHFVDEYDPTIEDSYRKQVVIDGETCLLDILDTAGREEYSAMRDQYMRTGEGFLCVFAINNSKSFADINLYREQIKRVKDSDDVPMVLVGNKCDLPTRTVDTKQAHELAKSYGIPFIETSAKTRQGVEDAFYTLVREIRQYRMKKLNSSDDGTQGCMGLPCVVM
NRAS Q61R, sequence (P62937 whole entry): as the sequence (P62937 whole entry) above
For another data set, the target named is NRAS Q61K (Homo sapiens (Human), UniProt P01111+P62937, Q61K). Kind of data set: Ras-Raf (BRAF RBD) disruption / FRET / MOA assay, NRAS Q61K. The data set is classed as biochemical. The following applies: NRAS Q61K; Ras-Raf disruption/FRET/MOA assay; read-out: IC50* NRAS Q61K FRET data. An outline of the steps: as §2
NRAS Q61K, sequence (P01111 whole entry Q61K): as the sequence (P01111 whole entry Q61R) above, with R61K counted along it
NRAS Q61K, sequence (P62937 whole entry): as the sequence (P62937 whole entry) above
Another data set addresses NRAS WT (Homo sapiens (Human), UniProt P01111+P62937). Kind of data set: Ras-Raf (BRAF RBD) disruption / FRET / MOA assay, NRAS WT. The following applies: read-out: IC50* NRAS WT FRET data. The data set is classed as biochemical. An outline of the steps:
as §2

KRAS WT, sequence (P01116-2 other isoform, or with tags, fused parts or gaps): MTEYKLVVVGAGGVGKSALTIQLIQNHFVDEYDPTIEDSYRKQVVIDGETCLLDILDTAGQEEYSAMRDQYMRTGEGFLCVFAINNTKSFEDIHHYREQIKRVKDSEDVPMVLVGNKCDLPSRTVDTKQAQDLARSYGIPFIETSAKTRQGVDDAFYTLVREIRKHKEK
KRAS WT, sequence (P62937 whole entry): as the sequence (P62937 whole entry) above
KRAS Q61H, sequence (P01116-2 other isoform, or with tags, fused parts or gaps Q61H): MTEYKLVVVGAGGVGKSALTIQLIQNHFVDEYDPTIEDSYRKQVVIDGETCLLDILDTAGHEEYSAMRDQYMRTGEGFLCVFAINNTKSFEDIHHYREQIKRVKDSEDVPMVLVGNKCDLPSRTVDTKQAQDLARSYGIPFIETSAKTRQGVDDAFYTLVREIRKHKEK
KRAS Q61H, sequence (P62937 whole entry): as the sequence (P62937 whole entry) above
NRAS G12C, sequence (P01111 whole entry G12C): as the sequence (P01111 whole entry Q61R) above, with G12C, R61Q counted along it
NRAS G12C, sequence (P62937 whole entry): as the sequence (P62937 whole entry) above
K-Ras G12C, sequence (P01116-2 other isoform, or with tags, fused parts or gaps G12C): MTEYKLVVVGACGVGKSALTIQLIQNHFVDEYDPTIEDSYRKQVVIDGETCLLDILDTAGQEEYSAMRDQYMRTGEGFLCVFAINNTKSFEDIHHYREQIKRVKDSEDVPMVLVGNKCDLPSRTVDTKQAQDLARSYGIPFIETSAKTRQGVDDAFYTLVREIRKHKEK
K-Ras G12C, sequence (P62937 whole entry): as the sequence (P62937 whole entry) above
KRAS G12D, sequence (P01116-2 other isoform, or with tags, fused parts or gaps G12D): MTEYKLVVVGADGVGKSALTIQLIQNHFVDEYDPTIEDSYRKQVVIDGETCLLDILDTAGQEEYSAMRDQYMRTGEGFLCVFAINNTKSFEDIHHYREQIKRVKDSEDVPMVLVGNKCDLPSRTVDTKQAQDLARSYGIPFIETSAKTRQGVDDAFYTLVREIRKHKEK
KRAS G12D, sequence (P62937 whole entry): as the sequence (P62937 whole entry) above
KRAS G12V, sequence (P01116-2 other isoform, or with tags, fused parts or gaps G12V): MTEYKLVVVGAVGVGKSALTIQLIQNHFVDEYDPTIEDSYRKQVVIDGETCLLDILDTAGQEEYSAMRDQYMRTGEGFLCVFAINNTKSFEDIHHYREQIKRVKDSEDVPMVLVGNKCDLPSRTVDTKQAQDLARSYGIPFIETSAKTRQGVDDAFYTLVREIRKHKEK
KRAS G12V, sequence (P62937 whole entry): as the sequence (P62937 whole entry) above
NRAS WT, sequence (P01111 whole entry): as the sequence (P01111 whole entry Q61R) above, with R61Q counted along it
NRAS WT, sequence (P62937 whole entry): as the sequence (P62937 whole entry) above

Regarding `CO[C@@H](C)c1ncc(N2CCN(C(=O)OCc3ccccc3)CC2)cc1-c1c2c3cc(ccc3n1CC(F)(F)F)-c1cccc(c1)C[C@H](NC(=O)OC(C)(C)C)C(=O)N1CCC[C@H](N1)C(=O)OCC(C)(C)C2`, the ring closure, isolated yield in data set [1] (from CO[C@@H](C)c1ncc(N2CCN(C(=O)OCc3ccccc3)CC2)cc1-c1c(CC(C)(C)CO)c2cc(-c3cccc(C[C@H](NC(=O)OC(C)(C)C)C(=O)N4CCC[C@@H](C(=O)O)N4)c3)ccc2n1CC(F)(F)F, ester bond, EDCI/HOBt/DIPEA, DCM, 9.9 mM) was 67.9%.
`CCn1c(-c2cccnc2[C@H](C)OC)c2c3cc(ccc31)C1=CCCN(C1)CC(NC(=O)OC(C)(C)C)C(=O)N1CCC[C@H](N1)C(=O)OCC(C)(C)C2` (stereo partly shown): the ring closure, yield of all isomers (from CCn1c(-c2cccnc2[C@H](C)OC)c(CC(C)(C)CO)c2cc(C3=CCCN(CC(NC(=O)OC(C)(C)C)C(=O)N4CCC[C@@H](C(=O)O)N4)C3)ccc21, ester bond, EDCI.HCl/HOBt/DIPEA, DCM, 7.14 mM, 30.0 °C, 16.0 h) came out at 40%.
Compound “tert-butyl ((6^3S,4S)-1^1-ethyl-1^2-(2-(methoxymethyl)phenyl)-10,10-dimethyl-2^5-nitro-5,7-dioxo-6^1,6^2,6^3,6^4,6^5,6^6-hexahydro-1^1H-8-oxa-1(5,3)-indola-6(1,3)-pyridazina-2(1,3)-benzenacycloundecaphane-4-yl)carbamate” returned a ring closure, isolated yield in data set [1] (ester bond, EDCI/HOBt/DIPEA, DCM, 6.4 mM) of 73%.
For the compound `CO[C@@H](C)c1ncccc1-c1c2c3cc(ccc3n1CC(F)(F)F)N1CCO[C@@H](C[C@H](NC(=O)OCc3ccccc3)C(=O)N3CCC[C@H](N3)C(=O)OCC(C)(C)C2)C1`, the ring closure, isolated yield in data set [1] (from CO[C@@H](C)c1ncccc1-c1c(CC(C)(C)CO)c2cc(N3CCO[C@@H](C[C@H](NC(=O)OCc4ccccc4)C(=O)N4CCC[C@@H](C(=O)O)N4)C3)ccc2n1CC(F)(F)F, ester bond, EDCI/HOBt/DIPEA, DCM, 11.25 mM) was found to be 74%.
In data set [1] (ester bond, EDCI/HOBt/DIPEA, DCM, 13.7 mM, 0.0 °C), “tert-butyl ((6^3S,4S)-1^1-ethyl-1^2-(2-((S)-1-methoxyethyl)pyridin-3-yl)-10,10-dimethyl-5,7-dioxo-6^1,6^2,6^3,6^4,6^5,6^6-hexahydro-1^1H-8-oxa-2(5,2)-oxazola-1(5,3)-indola-6(1,3)-pyridazinacycloundecaphane-4-yl)carbamate” displayed a ring closure, isolated yield of 56.4%.
For orientation: IC50 means the point on the concentration scale where inhibition reaches its midpoint. Take `C=CC(=O)N1CC[C@H](C(=O)N(C)[C@H](C(=O)N[C@H]2Cc3cccc(c3)-c3ccc4c(c3)c(c(-c3cnn(C)c3CN(C)C)n4CC)CC(C)(C)COC(=O)[C@@H]3CCCN(N3)C2=O)C(C)C)C1` (relative stereo) [Example A329]: the IC50 with NCI-H358 (K-Ras G12C) is 0.1 to 1 µM; on K-Ras G12C, > 10 µM; at K-Ras G13C, > 10 µM; on KRAS G12S it was > 10 µM; on KRAS G12D it was > 10 µM; at KRAS G12V it was > 10 µM. Further, the IC50 at KRAS WT, at KRAS G13D, on KRAS Q61H, on NRAS G12C, on NRAS Q61R and on NRAS Q61K was > 10 µM throughout. Besides, the IC50 on NRAS WT was > 10 µM.
In data set [1] (from CCn1c(-c2cccnc2[C@H](C)OC)c(CC(C)(C)CO)c2cc(N3CCO[C@@H](C[C@H](NC(=O)OCc4ccccc4)C(=O)N4CCC[C@@H](C(=O)O)N4)C3)ccc21, ester bond, EDCI/HOBt/DIPEA, DCM, 12.75 mM, 25.0 °C), `CCn1c(-c2cccnc2[C@H](C)OC)c2c3cc(ccc31)N1CCO[C@@H](C[C@H](NC(=O)OCc3ccccc3)C(=O)N3CCC[C@H](N3)C(=O)OCC(C)(C)C2)C1` came in with a ring closure, isolated yield of 66%.
Compound `CCn1c(-c2cccnc2[C@H](C)OC)c2c3cc(ccc31)-c1nc(co1)C[C@H](NC(=O)OC(C)(C)C)C(=O)N1CCC[C@H](N1)C(=O)OCC(C)(C)C2` had a ring closure, yield of all isomers (from CCn1c(-c2cccnc2[C@H](C)OC)c(CC(C)(C)COC(=O)[C@@H]2CCCN(C(=O)[C@H](Cc3coc(Br)n3)NC(=O)OC(C)(C)C)N2)c2cc(B3OC(C)(C)C(C)(C)O3)ccc21, cc_pd bond, XPhos Pd G3/XPhos/K3PO4, dioxane, […], 70.0 °C, 4.0 h) of 56%.
As to “tert-butyl ((6^3S,4S,Z)-1^1-ethyl-1^2-(2-((S)-1-methoxyethyl)pyridin-3-yl)-2^1,10,10-trimethyl-5,7-d ioxo-6^1,6^2,6^3,6^4,6^5,6^6-hexahydro-1^1H,2^1H-8-oxa-1(5,3)-indola-6(1,3)-pyridazina-2(5,3)-triazolacycloundecaphane-4-yl)carbamate”, the ring closure, isolated yield in data set [1] (cc_pd bond, XPhos Pd G3/XPhos/K3PO4, dioxane/H2O 5:1, 71.7 mM, 75.0 °C) stood at 56.8%.
Take `C=CC(=O)N1CC[C@H](C(=O)N(C)[C@H](C(=O)N[C@H]2Cc3cc(O)cc(c3)-c3cc4c(c(-c5ccccc5CCOC)n(CC)c4cn3)CC(C)(C)COC(=O)[C@@H]3CCCN(N3)C2=O)C(C)C)C1` [Example A102]: the IC50 in the data set on NCI-H358 (K-Ras G12C) is > 1 µM; on K-Ras G12C, 1 to 10 µM; on K-Ras G13C it was > 10 µM; at KRAS G12S, > 10 µM; at KRAS G12D it was > 10 µM; on KRAS G12V it was > 10 µM. Besides, the IC50 is > 10 µM on KRAS WT; > 10 µM at KRAS G13D; 1 to 10 µM at KRAS Q61H; 1 to 10 µM on NRAS G12C; > 10 µM on NRAS Q61R; > 10 µM at NRAS Q61K. The half-inhibitory concentration (IC50) on NRAS WT is > 10 µM.
On to `CCn1c(-c2cccnc2[C@H](C)OC)c2c3cc(ccc31)-c1nc(nn1C)C[C@H](NC(=O)OC(C)(C)C)C(=O)N1CCC[C@H](N1)C(=O)OCC(C)(C)C2`, for which, where the note is “from CCn1c(-c2cccnc2[C@H](C)OC)c(CC(C)(C)COC(=O)[C@@H]2CCCN(C(=O)[C@H](Cc3nc(Br)n(C)n3)NC(=O)OC(C)(C)C)N2)c2cc(B3OC(C)(C)C(C)(C)O3)ccc21, cc_pd bond, XPhos Pd G3/XPhos/K3PO4, 1,4-dioxane, 71.7 mM, 75.0 °C, 3.0 h”, the ring closure, yield of all isomers came out at 56.8%.
In the case of “tert-butyl ((6^3S,4S)-2^5-(difluoromethyl)-1^1-ethyl-1^2-(2-((S)-1-methoxyethyl)pyridin-3-yl)-10,10-dimethyl-5,7-dioxo-6^1,6^2,6^3,6^4,6^5,6^6-hexahydro-1^1H-8-oxa-1(5,3)-indola-6(1,3)-pyridazina-2(1,3)-benzenacycloundecaphane-4-yl)carbamate”, the ring closure, isolated yield in [1] (ester bond, EDCI/HOBt/DIPEA, DCM) turned out to be 51%.
Regarding `C=CC(=O)N1CC[C@H](C(=O)N(C)[C@H](C(=O)N[C@H]2Cc3cc(O)cc(c3)-c3ccc4nc(-c5cccnc5COC)c(n4c3)CC(C)(C)COC(=O)[C@@H]3CCCN(N3)C2=O)C(C)C)C1` [Example A243], the IC50 was > 1 µM in the data set with NCI-H358 (K-Ras G12C); > 10 µM at K-Ras G12C; > 10 µM on K-Ras G13C; > 10 µM on KRAS G12S; > 10 µM on KRAS G12D; > 10 µM on KRAS G12V. The IC50 on KRAS WT, on KRAS G13D, at KRAS Q61H, at NRAS G12C, on NRAS Q61R and on NRAS Q61K was > 10 µM in each case. Further, the IC50 at NRAS WT was > 10 µM.
